{
  "source": "patent US6573275B1",
  "about": "“Bicyclic amines” (Syngenta Limited, priority 1995, dated 2003)",
  "data": [
    {"system": "peach aphid (Myzus persicae)", "assay": "Insecticidal test against peach aphid, infested Chinese cabbage leaves sprayed", "assay_type": "in vivo", "conditions": "peach aphid (Myzus persicae) on Chinese cabbage leaves, sprayed with 500 ppm composition unless otherwise stated, mortality assessed after 3 days", "description": "This Example illustrates the insecticidal properties of the compounds of Formula I. The activity of the compounds of Formula I was determined using a variety of pests. The pests were treated with a liquid composition containing 500 parts per million (ppm) by weight of the compound unless otherwise stated. The compositions were made by dissolving the compound in acetone and ethanol (50:50) mixture and diluting the solutions with water containing 0.05% by weight of a wetting agent sold under the trade name “SYNPERONIC” NP8 until the liquid composition contained the required concentration of the compound. “SYNPERONIC” is a Registered Trade Mark.\nThe test procedure adopted with regard to each pest was basically the same and comprised supporting a number of the pests on a medium which was usually a substrate, a host plant or a foodstuff on which the pests feed, and treating either or both the medium and the pests with the compositions. The mortality of the pests was then assessed at periods usually varying from two to five days after the treatment.\nIn this test Chinese cabbage leaves were infested with aphids, the infested leaves were sprayed with the test composition, and the mortality assessed after 3 days.", "values": [
      {"molecule": "C=COC(=O)N1C2CCC1CC(C#N)(c1cncc(-c3ccccc3)c1)C2", "note": "(stereo not drawn) [Compound 217, exo-3-(5-phenylpyrid-3-yl)-endo-3-cyano-8-(vinyloxycarbonyl)-8-azabicyclo[3.2.1]octane]", "Score (grading of mortality)": "A (A indicates 80-100% mortality)"},
      {"molecule": "N#CC1(c2ccccc2)CC2CCC(C1)N2Cc1ccccc1", "note": "(single isomer, unassigned) [Compound 31]", "Score (grading of mortality)": "C (C indicates less than 40% mortality)"},
      {"molecule": "Cc1cccc(CN2C3CCC2CC(C#N)(c2cncc(Cl)c2)C3)c1F", "note": "(stereo not drawn) [Compound 263]", "Score (grading of mortality)": "A (A indicates 80-100% mortality)"},
      {"molecule": "N#CCCCN1C2CCC1CC(C#N)(c1cncc(Cl)c1)C2", "note": "(stereo not drawn) [Compound 285]", "Score (grading of mortality)": "A (A indicates 80-100% mortality)"},
      {"molecule": "C#CCN1C2CCC1CC(C#N)(c1cncc(Cl)c1)C2", "note": "(stereo not drawn) [Compound 75]", "Score (grading of mortality)": "A (A indicates 80-100% mortality)"},
      {"molecule": "N#CC1(c2cncc(Cl)c2)CC2CCC(C1)N2CCF", "note": "(stereo not drawn) [Compound 64]", "Score (grading of mortality)": "A (A indicates 80-100% mortality)"},
      {"molecule": "COCN1C2CCC1CC(C#N)(c1cccnc1)C2", "note": "(stereo not drawn) [Compound 47]", "Score (grading of mortality)": "A (A indicates 80-100% mortality)"},
      {"molecule": "N#CC1(c2cc(F)cc(F)c2)CC2CCC(C1)N2CC=C(F)F", "note": "(stereo not drawn) [Compound 18]", "Score (grading of mortality)": "A (A indicates 80-100% mortality)"},
      {"molecule": "N#CC1(c2cncc(Cl)c2)CC2CCC(C1)N2Cc1cccc(Cl)c1F", "note": "(stereo not drawn) [Compound 257]", "Score (grading of mortality)": "A (A indicates 80-100% mortality)"},
      {"molecule": "CC(C)CCN1C2CCC1CC(C#N)(c1cncc(Cl)c1)C2", "note": "(stereo not drawn) [Compound 280]", "Score (grading of mortality)": "A (A indicates 80-100% mortality)"},
      {"molecule": "N#CC1(c2cc(F)cc(F)c2)CC2CCC(C1)N2C(CO)c1ccccc1", "note": "(stereo not drawn) [Compound 20]", "Score (grading of mortality)": "C (C indicates less than 40% mortality)"},
      {"molecule": "N#CC(c1cccc(Cl)c1)N1C2CCC1CC(C#N)(c1cncc(Cl)c1)C2", "note": "(stereo not drawn) [Compound 215]", "Score (grading of mortality)": "A (A indicates 80-100% mortality)"},
      {"molecule": "CCOC(=O)C(C)N1C2CCC1CC(C#N)(c1cncc(Cl)c1)C2", "note": "(stereo not drawn) [Compound 197, exo-3-(5-chloropyrid-3-yl)-endo-3-cyano-8-(1-(ethoxycarbonyl)ethyl)-8-azabicyclo[3.2.1]octane]", "Score (grading of mortality)": "A (A indicates 80-100% mortality)"},
      {"molecule": "N#CC1(c2cncc(Cl)c2)CC2CCC(C1)N2Cc1cccc(C(=O)c2c(Cl)cccc2Cl)c1", "note": "(stereo not drawn) [Compound 232]", "Score (grading of mortality)": "A (A indicates 80-100% mortality)"},
      {"molecule": "C[n+]1cccc(C2(C#N)CC3CCC(C2)N3C(=O)OC(C)(C)C)c1.[I-]", "note": "(stereo not drawn) [Compound 40]", "Score (grading of mortality)": "A (A indicates 80-100% mortality)"},
      {"molecule": "CN1C2CCC1CC(C#N)(c1cccc(F)c1F)C2", "note": "(stereo not drawn) [Compound 3]", "Score (grading of mortality)": "A (A indicates 80-100% mortality)"},
      {"molecule": "N#CC1(c2cncc(Cl)c2)CC2CCC(C1)N2Cc1ccc(C(=O)O)cc1", "note": "(stereo not drawn) [Compound 101]", "Score (grading of mortality)": "A (A indicates 80-100% mortality)"},
      {"molecule": "Cc1noc(C)c1CN1C2CCC1CC(C#N)(c1cncc(Cl)c1)C2", "note": "(stereo not drawn) [Compound 124, exo-3-(5-chloropyrid-3-yl)-endo-3-cyano-8-((3,5-dimethylisoxazol-4-yl)methyl)-8-azabicyclo[3.2.1]octane]", "Score (grading of mortality)": "A (A indicates 80-100% mortality)"},
      {"molecule": "N#CC1(c2cncc(Cl)c2)CC2CCC(C1)N2Cc1ccc([N+](=O)[O-])cc1", "note": "(stereo not drawn) [Compound 275]", "Score (grading of mortality)": "A (A indicates 80-100% mortality)"},
      {"molecule": "COC(=N)CN1C2CCC1CC(C#N)(c1cc(F)cc(F)c1)C2", "note": "(stereo not drawn) [Compound 30]", "Score (grading of mortality)": "A (A indicates 80-100% mortality)"},
      {"molecule": "N#CC1(c2cc(F)cc(F)c2)CC2CCC(C1)N2CCF", "note": "(stereo not drawn) [Compound 23]", "Score (grading of mortality)": "A (A indicates 80-100% mortality)"},
      {"molecule": "N#CC1(c2cncc(Cl)c2)CC2CCC(C1)N2c1ccc(Cl)cc1", "note": "(stereo not drawn) [Compound 173]", "Score (grading of mortality)": "A (A indicates 80-100% mortality)"},
      {"molecule": "CN(C(=O)N1C2CCC1CC(C#N)(c1cncc(Cl)c1)C2)c1ccccc1", "note": "(stereo not drawn) [Compound 145]", "Score (grading of mortality)": "A (A indicates 80-100% mortality)"},
      {"molecule": "N#CC1(c2cncc(Cl)n2)CC2CCC(C1)N2Cc1cccc(Cl)c1", "note": "(stereo not drawn) [Compound 300]", "Score (grading of mortality)": "A (A indicates 80-100% mortality)"}
    ]}
  ]
}
